Results published in patent US7582300B2, “Modulation of gamma delta T cells to regulate airway hyperresponsiveness” (National Jewish Health, priority 1999, dated 2009).

Key:
[1] = test system: γδ T cells; test: Stimulation of γδ T cells / γδ T cell hybridomas in vitro; assay type: cell-based; conditions: for stimulation of γδ T cell hybridomas: phospholipids tested by the inventors
[2] = test system: αβ T cell hybridomas; test: Stimulation of αβ T cell hybridomas in vitro; assay type: cell-based

| Substance | stimulation of γδ T cells by peptides [1] | stimulation of γδ T cell hybridomas [1] | stimulation of αβ T cell hybridomas [2] |
| --- | --- | --- | --- |
| FGLQLEL (listed as Mycobacterium leprae) [SEQ ID NO:2, peptide from mycobacterial HSP-60 protein (from M. leprae)] | stimulatory for γδ T cells | – | – |
| FALQLEL [SEQ ID NO:1] | stimulatory for γδ T cells | – | – |
| phosphatidyl-glycerol | – | weakly stimulatory | – |
| Cardiolipin | – | selectively stimulates γδ T cell hybridomas | not αβ T cell hybridomas |
